Experimental data reported in ChEMBL document CHEMBL4346717, “1,2,4-Triazole-quinoline/quinolone hybrids as potential anti-bacterial agents” (Eur J Med Chem, 2019).
In brackets after ≈: the same amount, converted by molar mass.

How the values were obtained:
Type in all cases: functional
Staphylococcus aureus [1] = test: Antibacterial activity against Staphylococcus aureus
Pseudomonas aeruginosa [2] = test: Antibacterial activity against Pseudomonas aeruginosa
Escherichia coli [3] = test: Antibacterial activity against Escherichia coli
[4] = test system: Aggregatibacter actinomycetemcomitans; test: Antibacterial activity against Aggregatibacter actinomycetemcomitans ATCC 29524 after 3 to 7 days by cup diffusion method
Staphylococcus aureus [5] = test: Antibacterial activity against Staphylococcus aureus assessed as zone of inhibition at 10 mg/ml after 3 to 7 days by cup diffusion method; conditions: read-out: IZ
Mycolicibacterium phlei [6] = test: Antibacterial activity against Mycobacterium phlei clinical isolate after 3 to 7 days by cup diffusion method
Pseudomonas aeruginosa [7] = test: Antibacterial activity against Pseudomonas aeruginosa assessed as zone of inhibition at 10 mg/ml after 3 to 7 days by cup diffusion method; conditions: read-out: IZ
Escherichia coli [8] = test: Antibacterial activity against Escherichia coli after 3 to 7 days by cup diffusion method
Pseudomonas aeruginosa [9] = test: Antibacterial activity against Pseudomonas aeruginosa after 3 to 7 days by cup diffusion method
Staphylococcus aureus [10] = test: Antibacterial activity against Staphylococcus aureus after 3 to 7 days by cup diffusion method
Mycolicibacterium phlei [11] = test: Antibacterial activity against Mycobacterium phlei clinical isolate assessed as zone of inhibition at 10 mg/ml after 3 to 7 days by cup diffusion method; conditions: read-out: IZ
[12] = test system: Aggregatibacter actinomycetemcomitans; test: Antibacterial activity against Aggregatibacter actinomycetemcomitans ATCC 29524 assessed as zone of inhibition at 10 mg/ml after 3 to 7 days by cup diffusion method; conditions: read-out: IZ
Bacillus subtilis [13] = test: Antibacterial activity against Bacillus subtilis after 3 to 7 days by cup diffusion method
Escherichia coli [14] = test: Antibacterial activity against Escherichia coli assessed as zone of inhibition at 10 mg/ml after 3 to 7 days by cup diffusion method; conditions: read-out: IZ
Bacillus subtilis [15] = test: Antibacterial activity against Bacillus subtilis assessed as zone of inhibition at 10 mg/ml after 3 to 7 days by cup diffusion method; conditions: read-out: IZ
[16] = Aggregatibacter actinomycetemcomitans, ATCC 29524, read-out: MIC
[17] = Mycolicibacterium phlei, read-out: MIC
[18] = Escherichia coli, read-out: MIC
[19] = Pseudomonas aeruginosa, read-out: MIC
[20] = Staphylococcus aureus, read-out: MIC
[21] = Bacillus subtilis, read-out: MIC

Structure (SMILES)	MIC (Staphylococcus aureus [1]) [µg/mL]	MIC (Pseudomonas aeruginosa [2]) [µg/mL]	MIC (Escherichia coli [3]) [µg/mL]	zone of inhibition at 10000 µg/mL (Staphylococcus aureus [5]) [mm]	zone of inhibition at 10000 µg/mL (Pseudomonas aeruginosa [7]) [mm]	zone of inhibition at 10000 µg/mL (Mycolicibacterium phlei [11]) [mm]	zone of inhibition at 10000 µg/mL [12] [mm]	zone of inhibition at 10000 µg/mL (Escherichia coli [14]) [mm]	zone of inhibition at 10000 µg/mL (Bacillus subtilis [15]) [mm]	MIC [4, 16] [µM]	MIC (Mycolicibacterium phlei [6]; [17]) [µM]	MIC (Escherichia coli [8]; [18]) [µM]	MIC (Pseudomonas aeruginosa [9]; [19]) [µM]	MIC (Staphylococcus aureus [10]; [20]) [µM]	MIC (Bacillus subtilis [13]; [21]) [µM]	also measured
Nn1c(S)nnc1Cn1c(=O)cc(-c2ccccc2)c2ccc(Cl)cc21	8 to 256 (≈ 20.8 to 667 µM)	8 to 256 (≈ 20.8 to 667 µM)	8 to 256 (≈ 20.8 to 667 µM)													
CCn1cc(-c2nc(/N=C/c3ccc(OC)cc3)n[nH]2)c(=O)c2ccc(C)nc21				20 to 40	20 to 40	20 to 40	20 to 40	20 to 40	20 to 40							MIC [4]: >=0.031 - 32 ug ml-1; MIC (Mycolicibacterium phlei [6]): >=0.031 - 32 ug ml-1; MIC (Escherichia coli [8]): >=0.031 - 32 ug ml-1; MIC (Pseudomonas aeruginosa [9]): >=0.031 - 32 ug ml-1; MIC (Staphylococcus aureus [10]): >=0.031 - 32 ug ml-1; MIC (Bacillus subtilis [13]): >=0.031 - 32 ug ml-1
CCn1cc(-c2nc(NC(=O)CCl)n[nH]2)c(=O)c2cc(Br)c(C)nc21				20 to 40	20 to 40	20 to 40	20 to 40	20 to 40	20 to 40	3.68 to 6.3 (≈ 1.57 to 2.68 µg/mL)	3.68 to 6.3 (≈ 1.57 to 2.68 µg/mL)	3.68 to 6.3 (≈ 1.57 to 2.68 µg/mL)	3.68 to 6.3 (≈ 1.57 to 2.68 µg/mL)	3.68 to 6.3 (≈ 1.57 to 2.68 µg/mL)	3.68 to 6.3 (≈ 1.57 to 2.68 µg/mL)	
CCn1cc(-c2nc(NC(=O)c3ccc(Cl)cc3)n[nH]2)c(=O)c2cc(Br)c(C)nc21				20 to 40	20 to 40	20 to 40	20 to 40	20 to 40	20 to 40	3.68 to 6.3 (≈ 1.79 to 3.07 µg/mL)	3.68 to 6.3 (≈ 1.79 to 3.07 µg/mL)	3.68 to 6.3 (≈ 1.79 to 3.07 µg/mL)	3.68 to 6.3 (≈ 1.79 to 3.07 µg/mL)	3.68 to 6.3 (≈ 1.79 to 3.07 µg/mL)	3.68 to 6.3 (≈ 1.79 to 3.07 µg/mL)	
Nn1c(S)nnc1Cn1c(=O)cc(-c2ccccc2)c2cccc(Cl)c21	8 to 256 (≈ 20.8 to 667 µM)	8 to 256 (≈ 20.8 to 667 µM)	8 to 256 (≈ 20.8 to 667 µM)													
CCn1cc(-c2nc(/N=C/c3ccc(Cl)cc3)n[nH]2)c(=O)c2cc(Br)c(C)nc21				20 to 40	20 to 40	20 to 40	20 to 40	20 to 40	20 to 40	3.68 to 6.3 (≈ 1.74 to 2.97 µg/mL)	3.68 to 6.3 (≈ 1.74 to 2.97 µg/mL)	3.68 to 6.3 (≈ 1.74 to 2.97 µg/mL)	3.68 to 6.3 (≈ 1.74 to 2.97 µg/mL)	3.68 to 6.3 (≈ 1.74 to 2.97 µg/mL)	3.68 to 6.3 (≈ 1.74 to 2.97 µg/mL)	
CCn1cc(-c2nc(/N=C/c3ccccc3O)n[nH]2)c(=O)c2cc(Br)c(C)nc21				20 to 40	20 to 40	20 to 40	20 to 40	20 to 40	20 to 40	3.68 to 6.3 (≈ 1.67 to 2.86 µg/mL)	3.68 to 6.3 (≈ 1.67 to 2.86 µg/mL)	3.68 to 6.3 (≈ 1.67 to 2.86 µg/mL)	3.68 to 6.3 (≈ 1.67 to 2.86 µg/mL)	3.68 to 6.3 (≈ 1.67 to 2.86 µg/mL)	3.68 to 6.3 (≈ 1.67 to 2.86 µg/mL)	
Nn1c(S)nnc1Cn1c(=O)cc(-c2ccccc2)c2cc(Cl)ccc21	8 to 256 (≈ 20.8 to 667 µM)	8 to 256 (≈ 20.8 to 667 µM)	8 to 256 (≈ 20.8 to 667 µM)													
CCn1cc(-c2nc(/N=C/c3ccc(Cl)cc3Cl)n[nH]2)c(=O)c2cc(Br)c(C)nc21				20 to 40	20 to 40	20 to 40	20 to 40	20 to 40	20 to 40	3.68 to 6.3 (≈ 1.86 to 3.19 µg/mL)	3.68 to 6.3 (≈ 1.86 to 3.19 µg/mL)	3.68 to 6.3 (≈ 1.86 to 3.19 µg/mL)	3.68 to 6.3 (≈ 1.86 to 3.19 µg/mL)	3.68 to 6.3 (≈ 1.86 to 3.19 µg/mL)	3.68 to 6.3 (≈ 1.86 to 3.19 µg/mL)	
COc1ccc2c(-c3ccccc3)cc(=O)n(Cc3nnc(S)n3N)c2c1	8 to 256 (≈ 21.1 to 675 µM)	8 to 256 (≈ 21.1 to 675 µM)	8 to 256 (≈ 21.1 to 675 µM)													
CCn1cc(-c2nc(/N=C/c3ccc(F)cc3)n[nH]2)c(=O)c2cc(Br)c(C)nc21				20 to 40	20 to 40	20 to 40	20 to 40	20 to 40	20 to 40	3.68 to 6.3 (≈ 1.68 to 2.87 µg/mL)	3.68 to 6.3 (≈ 1.68 to 2.87 µg/mL)	3.68 to 6.3 (≈ 1.68 to 2.87 µg/mL)	3.68 to 6.3 (≈ 1.68 to 2.87 µg/mL)	3.68 to 6.3 (≈ 1.68 to 2.87 µg/mL)	3.68 to 6.3 (≈ 1.68 to 2.87 µg/mL)	
CCn1cc(-c2nc(/N=C/c3ccccc3)n[nH]2)c(=O)c2cc(Br)c(C)nc21				20 to 40	20 to 40	20 to 40	20 to 40	20 to 40	20 to 40	3.68 to 6.3 (≈ 1.61 to 2.75 µg/mL)	3.68 to 6.3 (≈ 1.61 to 2.75 µg/mL)	3.68 to 6.3 (≈ 1.61 to 2.75 µg/mL)	3.68 to 6.3 (≈ 1.61 to 2.75 µg/mL)	3.68 to 6.3 (≈ 1.61 to 2.75 µg/mL)	3.68 to 6.3 (≈ 1.61 to 2.75 µg/mL)	
CCn1cc(-c2nc(/N=C/c3ccc(OC)cc3)n[nH]2)c(=O)c2cc(Br)c(C)nc21				20 to 40	20 to 40	20 to 40	20 to 40	20 to 40	20 to 40	3.68 to 6.3 (≈ 1.72 to 2.94 µg/mL)	3.68 to 6.3 (≈ 1.72 to 2.94 µg/mL)	3.68 to 6.3 (≈ 1.72 to 2.94 µg/mL)	3.68 to 6.3 (≈ 1.72 to 2.94 µg/mL)	3.68 to 6.3 (≈ 1.72 to 2.94 µg/mL)	3.68 to 6.3 (≈ 1.72 to 2.94 µg/mL)	
Cc1ccc2c(-c3ccccc3)cc(=O)n(Cc3nnc(S)n3N)c2c1	8 to 256 (≈ 22 to 704 µM)	8 to 256 (≈ 22 to 704 µM)	8 to 256 (≈ 22 to 704 µM)													
COc1cccc2c(-c3ccccc3)cc(=O)n(Cc3nnc(S)n3N)c12	8 to 256 (≈ 21.1 to 675 µM)	8 to 256 (≈ 21.1 to 675 µM)	8 to 256 (≈ 21.1 to 675 µM)													
CCn1cc(-c2nc(/N=C/c3ccc(Br)cc3)n[nH]2)c(=O)c2cc(Br)c(C)nc21				20 to 40	20 to 40	20 to 40	20 to 40	20 to 40	20 to 40	3.68 to 6.3 (≈ 1.9 to 3.25 µg/mL)	3.68 to 6.3 (≈ 1.9 to 3.25 µg/mL)	3.68 to 6.3 (≈ 1.9 to 3.25 µg/mL)	3.68 to 6.3 (≈ 1.9 to 3.25 µg/mL)	3.68 to 6.3 (≈ 1.9 to 3.25 µg/mL)	3.68 to 6.3 (≈ 1.9 to 3.25 µg/mL)	
Cc1ccc2c(c1)c(-c1ccccc1)cc(=O)n2Cc1nnc(S)n1N	8 to 256 (≈ 22 to 704 µM)	8 to 256 (≈ 22 to 704 µM)	8 to 256 (≈ 22 to 704 µM)													
Nn1c(S)nnc1Cn1c(=O)cc(-c2ccccc2)c2ccccc21	8 to 256 (≈ 22.9 to 733 µM)	8 to 256 (≈ 22.9 to 733 µM)	8 to 256 (≈ 22.9 to 733 µM)													
COc1ccc2c(c1)c(-c1ccccc1)cc(=O)n2Cc1nnc(S)n1N	8 to 256 (≈ 21.1 to 675 µM)	8 to 256 (≈ 21.1 to 675 µM)	8 to 256 (≈ 21.1 to 675 µM)													
Cc1cccc2c(-c3ccccc3)cc(=O)n(Cc3nnc(S)n3N)c12	8 to 256 (≈ 22 to 704 µM)	8 to 256 (≈ 22 to 704 µM)	8 to 256 (≈ 22 to 704 µM)													
CCn1cc(-c2nc(NC(=O)c3ccc(OC)cc3)n[nH]2)c(=O)c2cc(Br)c(C)nc21				20 to 40	20 to 40	20 to 40	20 to 40	20 to 40	20 to 40	3.68 to 6.3 (≈ 1.78 to 3.04 µg/mL)	3.68 to 6.3 (≈ 1.78 to 3.04 µg/mL)	3.68 to 6.3 (≈ 1.78 to 3.04 µg/mL)	3.68 to 6.3 (≈ 1.78 to 3.04 µg/mL)	3.68 to 6.3 (≈ 1.78 to 3.04 µg/mL)	3.68 to 6.3 (≈ 1.78 to 3.04 µg/mL)	
CCn1cc(-c2nc(NC(=O)c3ccc(F)cc3)n[nH]2)c(=O)c2cc(Br)c(C)nc21				20 to 40	20 to 40	20 to 40	20 to 40	20 to 40	20 to 40	3.68 to 6.3 (≈ 1.73 to 2.97 µg/mL)	3.68 to 6.3 (≈ 1.73 to 2.97 µg/mL)	3.68 to 6.3 (≈ 1.73 to 2.97 µg/mL)	3.68 to 6.3 (≈ 1.73 to 2.97 µg/mL)	3.68 to 6.3 (≈ 1.73 to 2.97 µg/mL)	3.68 to 6.3 (≈ 1.73 to 2.97 µg/mL)	
